Assay results: patent US7670767B1, “Genetic alterations associated with cancer” (The Regents of the University of California, priority 1997, dated 2010)

Columns and labels:
[1] = test system: OVCAR3 cells; assay: programmed cell death, fluorescence based measurement of free DNA ends (Apo direct); design: species or system human
Experimental: This decrease in viability (FIG. 5B) was associated with an increased rate of programmed cell death at 24 (24% vs 51%) and 48 hour (22% vs 52%) as assessed by a fluorescence based measurement of free DNA ends Apo direct, Phoenix Flow Systems.

[2] = test system: OVCAR3 cells; assay: MTT viability assay; type: cell-based, human
Experimental: NOE, MC[MUT] or OVCAR3 (as indicated) were starved of serum overnight and then cultured in 0.5% serum. […] Cell proliferation and viability assay was assessed before and after treatment with the PI3-kinase inhibitor LY294002 as follows. Cells were cultured in 96-well plates (15×10^3 cells/well) and serum starved overnight prior to the addition of LY294002 (Calbiochem) at various concentrations. […] For viability assay, cells were incubated with LY294002 as described above for 96 hours. MTT (25 ml of 5 ml/ml in PBS) was added to each well and incubated at 37° C. for 2 hours. Cells were then lysed by addition of 100 ml lysis buffer (20% SDS in 50% N,N-dimethylformamide, pH4.7). The cultures were set at 37° C. overnight and measured by microplate reader at 570 nm wavelength. Percent Maximum was converted from OD570 as indicated above.

Question: What does the source list for `O=c1cc(N2CCOCC2)oc2c(-c3ccccc3)cccc12` [LY294002]?
Answer: rate of programmed cell death ([1]; 24 hour, printed as 24% vs 51%): 51%; rate of programmed cell death ([1]; 48 hour, printed as 22% vs 52%): 52%; times more sensitive to the effect of LY294002 (OVCAR3 vs NOE or MCF10F) ([2]; in serum free media): 100 times; times more sensitive to the effect of LY294002 (OVCAR3 vs NOE or MCF10F) ([2]; in the presence of 0.5% FCS): 10 times
